Results as given in paper PMC11769294, “(E)-1-(3-(3-Hydroxy-4-Methoxyphenyl)-1-(3,4,5-Trimethoxyphenyl)allyl)-1H-1,2,4-Triazole and Related Compounds: Their Synthesis and Biological Evaluation as Novel Antimitotic Agents Targeting Breast Cancer” (Pharmaceuticals, 2025).
Where “and” joins values, the source holds several entries; their conditions need not be identical. Equal values may be shown once.

Tests used:
SN12C (Renal Cancer) = assay: NCI60 screen (SRB); assay type: cell-based, human; settings: one dose 10 µM, 48 h
CCRF-CEM (Leukemia) = assay: NCI60 screen (SRB); assay type: cell-based, human; settings: one dose 10 µM, 48 h
SK-MEL-5 (Melanoma) = assay: NCI60 screen (SRB); assay type: cell-based, human; settings: one dose 10 µM, 48 h
[1] = tested on: NCI-H226 (Non-Small Cell Lung Cancer); assay: NCI60 screen (SRB); assay type: cell-based, human; settings: one dose 10 µM, 48 h
[2] = tested on: MCF-7 breast cancer cells; assay: alamarBlue cell viability assay; assay type: cell-based; settings: Homo sapiens, MCF7, MCF-7, 72 h, read-out: viable cells
Experimental: Figure 5 Preliminary cell viability data for Series 1: (A) compounds 22a–22g and chalcone 20b and Series 2: (B) compounds 23a–e and chalcone 20b in MCF-7 breast cancer cells. Cell proliferation of MCF-7 cells was determined with an alamarBlue assay (seeding density 2.5 × 10^4 cells/mL per well for 96-well plates). Compound concentrations of either 1 or 0.1 μM for 72 h were used to treat the cells (in triplicate) with control wells containing vehicle ethanol (1% v/v). The mean value ± SEM for three independent experiments is shown. The positive controls used are CA-4 and phenstatin (1.0 μM and 0.1 μM). Statistical analysis was performed using One-way ANOVA with the Sidak multiple comparison test (***, p < 0.001).
HL-60 cells were suspension cells and the seeding density for the viability assay was 25,000 cells/mL. MCF-7 cells (adherent) were cultured in Minimum Essential Media (MEM) with GlutaMAX™-I, supplemented with 1% (v/v) non-essential amino acids, 10% (v/v) fetal bovine serum (FBS), purchased from BD Biosciences (Edmund Halley Road, Oxford, UK), and 1% (v/v) penicillin/streptomycin 5000 U/mL. The MCF-7 cells used in the screening of the compounds during these experiments were mycoplasma-free. The seeding density of MCF-7 in the viability assay was 25,000 cells/mL and 50,000 cells/mL in the FACS assay. Normal breast cells (MCF-10A) (adherent) were cultured in Dulbecco’s Modified Eagle Medium: Nutrient Mixture F-12 (DMEM/F12; Gibco) supplemented with 5% horse serum (Invitrogen, Waltham, MA, USA), 20 ng/mL epidermal growth factor (Merck Millipore, Burlington, MA, USA), 0.5 μg/mL hydrocortisone (Sigma, Kanagawa, Japan), 100 ng/mL cholera toxin (Sigma), 10 μg/mL insulin (Sigma), and penicillin/streptomycin 5000 U/mL (1%) (Gibco, Waltham, MA, USA). […] MDA-MB-231 cells were cultured in Dulbecco’s Modified Eagle Medium, which was supplemented with 10% (v/v) fetal bovine serum (FBS) and 1% (v/v) penicillin/streptomycin 5000 U/mL. When not in use, all cells were kept in liquid nitrogen and frozen in a freezing media made of 90% FBS and 10% DMSO. All cells were grown in an atmosphere of 5% CO2/95% air in T75 culture flasks. The media was changed every 2–3 days and media was always prewarmed to 37 °C. All were sub-cultured every 3–4 days by trypsinization using TrypLE™ Express enzyme when confluence was reached to allow growth, prevent excessive cell death, and minimize the risk of infections derived by over-confluence. For the cell viability assay, the number of cells per milliliter was 25,000 cells/mL while the FACS assay utilized 50,000 cells/mL. Cells were maintained at 37 °C in 5% CO2 in a humidified incubator.
The biochemical assays were performed in triplicate and on at least three independent occasions to facilitate the determination of mean values. For the viability assay, cells were grown until 80% confluent. Adherent cells such as MCF-7, MDA-MB-231, and MCF-10A were trypsinized to detach them from the flask, counted as previously described, and seeded in 96 well plates with a seeding density of 25,000 cells /mL (200 µL of suspension in each well so that the final number of cells per well was 5000) and 1 × 10^4 cells/well seeding density for suspension HL-60 cells. Adherent cells were incubated for 24 h after being seeded in the 96 well plate and treated on the following day, while suspension cells were treated on the same day of the seeding. In both cases, the incubation time after the treatment with the drug was 72 h. After 68 h incubation, the AlamarBlue was added (20 µL in each well) and the incubation time was completed. After 72 h, the change in color was measured by spectrofluorimetry at an excitation wavelength of 544 nm and emission wavelength of 590 nm. AlamarBlue is a cell viability indicator containing a compound called resazurin. AlamarBlue is water soluble, stable in culture media, non-toxic, and is permeable through the cell membrane. […]

RPMI-8226 (Leukemia) = assay: NCI60 screen (SRB); assay type: cell-based, human; settings: one dose 10 µM, 48 h
MCF7 (Breast Cancer) = assay: NCI60 screen (SRB); assay type: cell-based, human; settings: one dose 10 µM, 48 h
SW-620 (Colon Cancer) = assay: NCI60 screen (SRB); assay type: cell-based, human; settings: one dose 10 µM, 48 h
[3] = tested on: MDA-MB-231/ATCC (Breast Cancer); assay: NCI60 screen (SRB); assay type: cell-based, human; settings: one dose 10 µM, 48 h
MDA-MB-435 (Melanoma) = assay: NCI60 screen (SRB); assay type: cell-based, human; settings: one dose 10 µM, 48 h
DU-145 (Prostate Cancer) = assay: NCI60 screen (SRB); assay type: cell-based, human; settings: one dose 10 µM, 48 h
breast cancer panel = assay: NCI60 screen (SRB), panel mean; assay type: cell-based, human; settings: BC panel; one dose 10 µM; 48 h
[4] = tested on: NCI-H23 (Non-Small Cell Lung Cancer); assay: NCI60 screen (SRB); assay type: cell-based, human; settings: one dose 10 µM, 48 h
UACC-62 (Melanoma) = assay: NCI60 screen (SRB); assay type: cell-based, human; settings: one dose 10 µM, 48 h
UACC-257 (Melanoma) = assay: NCI60 screen (SRB); assay type: cell-based, human; settings: one dose 10 µM, 48 h
K-562 (Leukemia) = assay: NCI60 screen (SRB); assay type: cell-based, human; settings: one dose 10 µM, 48 h
TK-10 (Renal Cancer) = assay: NCI60 screen (SRB); assay type: cell-based, human; settings: one dose 10 µM, 48 h
SK-MEL-2 (Melanoma) = assay: NCI60 screen (SRB); assay type: cell-based, human; settings: one dose 10 µM, 48 h
HS 578T (Breast Cancer) = assay: NCI60 screen (SRB); assay type: cell-based, human; settings: HS 578T; one dose 10 µM; 48 h
[5] = tested on: A549/ATCC (Non-Small Cell Lung Cancer); assay: NCI60 screen (SRB); assay type: cell-based, human; settings: one dose 10 µM, 48 h

| Compound | growth percent (SN12C (Renal Cancer)) [%] | growth percent (CCRF-CEM (Leukemia)) [%] | growth percent (SK-MEL-5 (Melanoma)) [%] | growth percent [1] [%] | viability at 1 µM [2] [%] | growth percent (RPMI-8226 (Leukemia)) [%] | growth percent (MCF7 (Breast Cancer)) | growth percent (SW-620 (Colon Cancer)) [%] | growth percent [3] | growth percent (MDA-MB-435 (Melanoma)) [%] | growth percent (DU-145 (Prostate Cancer)) [%] | mean growth percentage (breast cancer panel) [%] | growth percent [4] [%] | growth percent (UACC-62 (Melanoma)) [%] | growth percent (UACC-257 (Melanoma)) [%] | growth percent (K-562 (Leukemia)) [%] | growth percent (TK-10 (Renal Cancer)) [%] | growth percent (SK-MEL-2 (Melanoma)) [%] | growth percent (HS 578T (Breast Cancer)) [%] | growth percent [5] [%] | further results |
| --- | --- | --- | --- | --- | --- | --- | --- | --- | --- | --- | --- | --- | --- | --- | --- | --- | --- | --- | --- | --- | --- |
| COc1ccc(/C=C/C(c2cc(OC)c(OC)c(OC)c2)n2ccnc2)cc1O (stereo not drawn) [Compound 23b, (E)-5-(3-(1H-Imidazol-1-yl)-3-(3,4,5-trimethoxyphenyl)prop-1-en-1-yl)-2-methoxyphenol] | 57.15 | 37.13 | 16.98 | 88.36 | 74 | 15.14 | 17.9% and 17.87% | 17.41 | 53.0% and 52.97% | −25.56 | 37.76 | 38.1 | 55.69 | 36.37 | 34.19 | 13.63 | 84.45 | 41.65 | 32.05 | 29.07 | viability at 0.1 µM ([2]; 0.1 μM): 75% |
| COc1ccc(/C=C/C(c2cc(OC)c(OC)c(OC)c2)n2cncn2)cc1 (stereo not drawn) [Compound 22a, (E)-1-(3-(4-Methoxyphenyl)-1-(3,4,5-trimethoxyphenyl)allyl)-1H-1,2,4-triazole] | 62.02 | 35.07 | 33.03 | 75.97 | 60 | 50.84 | 22.5% and 22.48% | 26.63 | 50.05% | −9.62 | 61.25 | 40.1 | 67.01 | 33.84 | 46.44 | 17.72 | 48.52 | 12.89 | 51.18 | 35.48 | – |
| COc1ccc(C2CC(n3ccnc3)c3cc(OC)c(OC)c(OC)c32)cc1O (stereo not drawn) [Compound 27a, 5-(3-(1H-Imidazol-1-yl)-5,6,7-trimethoxy-2,3-dihydro-1H-inden-1-yl)-2-methoxyphenol] | 104.36 | 90.92 | 53.15 | 97.37 | – | 94.65 | 44.8% and 44.77% | 62.47 | 81.01% | 5.00 | 102.37 | 79.1 | 91.50 | 65.53 | 58.46 | 44.70 | 101.23 | 89.63 | 85.38 | 55.83 | – |
